Data published in EP1067965B1, “PHARMACEUTICAL COMPOSITION FOR TREATING CEREBRAL APOPLEXY AND CRANIOCEREBRAL TRAUMA” (Bayer HealthCare AG, priority 1997, dated 1999).

Assays:
[1] = test system: Rattenmodell der permanenten fokalen cerebralen Ischämie (MCA-O); test: Neuroprotection in the rat model of permanent focal cerebral ischaemia (MCA-O); assay type: in vivo, Ratte; conditions: 7 days survival, Placebo 146,69 ± 6,77
Excerpt: Unter allgemeiner Narkose (Isofluran) wird in der Mitte zwischen Auge und Ohr ein Hautschnitt gelegt und unter Durchtrennung der darunterliegenden Muskelpartien ein Zugang zum Schädel im Bereich des Foramen ovale geschaffen. Etwa 1 mm rostrodorsal dieser Öffnung wird der Schädelkalotte durchgebohrt, die darunterliegenden Hirnhäute eröffnet, und durch Elektrokoagulation die Arteria cerebri media und deren Nebenäste permanent verschlossen. Daraufhin wird die Kaumuskulatur in ihre ursprüngliche Lage gebracht. Die Muskel- und Hautwunde wird chirurgisch verschlossen und versorgt. Nach dem Aufwachen aus der Narkose werden die Tiere in ihren Heimkäfig zurückgesetzt. Im Verlauf der folgenden Stunden entwickelt sich im Versorgungsgebiet der Arteria cerebri media ein Infarkt, dessen Ausdehnung histologisch quantifiziert wird.
Nach 7 Tagen Überlebenszeit werden die Tiere getötet, das Gehirn entnommen und in auf -30°C gekühltem 2-Methylbutan eingefroren. Mit Hilfe eines Kryostatmikrotoms werden 20 µm dicke Schnitte in 500 µm Abstand im Infarktbereich hergestellt. Nach der Cresylechtviolett-Färbung der fixierten Gehirnschnitte ist das Infarktgebiet vom nicht betroffenen Gewebe deutlich zu unterscheiden. […]

[2] = test system: isolierte Aortaringe des Kaninchens; test: Inhibition of KCl-induced contraction of isolated rabbit aortic rings; assay type: cell-based; conditions: KCl 1 x 10^-2 mol/l; mean ± standard deviation; Nimodipin value under a comparable set-up; read-out: EC50-Wert, Inhibition der KCl-induzierten Kontraktion der Kaninchen-Aortenringe
Excerpt: Im Allgemeinen heben Kalziumkanalantagonisten die KCl-induzierte Kontraktion isolierter Aortaringe des Kaninchens auf (vgl. Arzneim.-Forsch./Drug Res. 1992, 42, 795-797; J. Pharmacol. Exp.Ther. 1953, 108,129-143.).
Kaninchen beiderlei Geschlechts werden schmerzlos betäubt und entblutet. Der thorakale Teil der Aorta descendens wird ohne Verletzung der Endothelschicht freipräpariert und auf ca. 2 mm breite spiraienförmige Streifensegmente geschnitten und einzeln unter einer Anfangsbelastung von ca. 2 g in 10ml Carbogen-begaste Krebs-Bicarbonat-Pufferlösung (37°C) verbracht.
Kontraktionen werden isometrisch erfaßt und ausgewertet.
Die funktionelle Integrität des Endotheliums wird durch Noradrenalin (1 x 10^-8 mol/l) induzierte Kontraktionen und durch Acetylcholin (1 x 10^-8 - 1 x 10^-5 mol/l) hervorgerufene Relaxation getestet. Nach einer Auswasch- und Ruhephase sowie Erreichen eines stabilen Basalwertes (ca. nach 2 Stunden) wird mit Zugabe von 0,25 ml KCl, bei einer Endkonzenration von 1 x 10^-2 mol/l eine submaximale (60-80%) Kontraktion der Aortastreifen ausgelöst. Die Testsubstanz wird während der Plateauphase der KCl induzierten Kontraktion in die Bäder appliziert (in steigender Dosierungen: 1 x 10^-12 - 1 x 10^-5 mol/l Endkonzentration) und die Wirkung auf den kontrahierten Gefäßstreifen gemessen. […]

[3] = molecular target: T1, 5-HT1A Rezeptor gekoppelte Adenylatcyclase-Aktivität (Rattus norvegicus, UniProt P19327); test: Inhibition of forskolin-stimulated adenylate cyclase activity on hippocampal cell membranes; assay type: biochemical; conditions: Hippocampusmembranen der Ratte; 0,01 mM Forskolin; read-out: IC50-Wert, Inhibition der Forskolin-stimulierten Adenylatcyclase Aktivität
T1 construct: an hippocampalen Zellmembranen der Ratte; from tissue; host or cells: rat hippocampus membranes
T1 sequence (P19327 1-422): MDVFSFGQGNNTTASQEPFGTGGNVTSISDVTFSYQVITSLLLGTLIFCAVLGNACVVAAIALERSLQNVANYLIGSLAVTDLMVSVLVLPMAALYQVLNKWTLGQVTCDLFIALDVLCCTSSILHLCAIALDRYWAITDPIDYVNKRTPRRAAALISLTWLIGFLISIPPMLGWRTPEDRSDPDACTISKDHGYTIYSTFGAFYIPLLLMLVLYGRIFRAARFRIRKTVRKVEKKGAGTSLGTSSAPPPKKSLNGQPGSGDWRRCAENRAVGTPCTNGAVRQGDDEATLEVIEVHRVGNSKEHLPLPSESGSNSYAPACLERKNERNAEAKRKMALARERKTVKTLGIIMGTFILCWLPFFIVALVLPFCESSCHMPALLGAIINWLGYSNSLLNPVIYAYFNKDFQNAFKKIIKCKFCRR
Experimental: 5-HT1A Rezeptor gekoppelte Adenylatcyclase-Aktivität wurde an hippocampalen Zellmembranen der Ratte mit der Methodik von De Vivo und Maayani (J. Pharmacol. Exp. Ther. 1986, 238, 248-253.) gemessen.
Der Hippocampus wurde in 25 Volumen 0,3 M Sucroselösung (ergänzt mit 1mM EGTA, 5 mM EDTA, 5 mM Dithiothreitol und 20 mM Tris-HCl; pH 7,4 bei 25°C) in einem motorgetriebenen Potter-Elvehjem-Homogenisator zerkleinert. Das Homogenat wurde 10 min lang bei 1.000 g abzentrifugiert, danach der Überstand 10 min bei 39.000 g nochmals zentrifugiert. Das Pellet wurde im Homogenisationspuffer aufgenommen. Aliquots mit einem Proteingehalt von 1 mg/ml (gemessen nach Bradford Anal. Biochem. 1976, 72, 248-254.) wurden bei -140°C bis zur weiteren Verarbeitung aufbewahrt. Vor dem Assay wurde das aufgetaute Homogenat mit dem Potter-Elvehjem-Homogenisator nochmals homogenisiert. 50 µl Homogenat (mit ca. 50 µg Proteingehalt) wurden der vorgewärmten (5 min bei 30°C) Inkubationsmischung (100 mM NaCl, 2mM Magnesium Acetate 0,2 mM ATP, 1 mM cAMP, 0,01 mM GTP, 0,01 mM Forskolin, 80 mM Tris-HCl, 5 mM Creatine Phosphate, 0,8 U/µl Creatine Phosphokinase, 0,01 mM IBMX, 1 - 2 µCi α-[^32P]ATP) zupipettiert und so die Inkubation (10 min bei 30°C) gestartet.
Zur Messung der Adenylatcyclase-Aktivität wurde die Menge des gebildeten [^32P]cAMP nach Salomon (Adv. Cyclic Nucleotide Res. 1979, 10, 35-55.) bestimmt.

SMILES	Infarktvolumen im cerebralen Cortex (Mittelwert ± S.E.M; mm^3) ([1]; 0,003 mg/kg/Std i.v. infusion over 4 h directly after occlusion)	EC50 [2] [nM]	IC50 [3] [nM]	Infarktvolumen im cerebralen Cortex (Mittelwert ± S.E.M; mm^3) ([1]; i.v. infusion over 4 h directly after occlusion)
COCCOC(=O)C1=C(C)NC(C)=C(C(=O)OC(C)C)C1c1cccc([N+](=O)[O-])c1 (racemic) [Nimodipin, (RS)-1,4-Dihydro-2,6-dimethyl-4-(3-nitrophenyl)-3,5-pyridindicarbonsäure-isopropylester-2-methoxyethylester]	120,87 ± 8,79 mm^3	2.9 to 4.3	–	–
O=C1c2ccccc2S(=O)(=O)N1CCCCNCC1CCc2ccccc2O1 (single isomer, unassigned) [5-HT1A-Agonist*]	–	–	1.6	104,79 ± 7,63 mm^3
COC(=O)C1=C(C)NC(C)=C(C(=O)OC)C1c1ccccc1[N+](=O)[O-] [Nifedipin]	–	3.58	–	–
